Measured values as given in publication PMC3466212, “Novel AChE Inhibitors for Sustainable Insecticide Resistance Management” (PLoS ONE, 2012).
Like-named read-outs stand apart in the source and are kept apart here.

Key:
WT AChE1 [1] = target: T1, WT AChE1 (Culex pipiens, UniProt Q86GC8); conditions: read-out: Kic WT; dissociation constant of enzyme-inhibitor complex; five independent replicates
Description: (§1) To identify inhibitors of G119S AChE1, we screened a 3,000-compound chemical library using an assay adapted to a microplate format, [26]. […] For simplification, these compounds will be termed from now as PTF (PyrimidineTrione Furan-substituted) and were classified depending on the substituted positions (Table S1).
(§2) WT and G119S recombinant AChE1s were incubated with 0.25 mM, 0.5 mM or 1 mM inhibitor. Residual activity of G119S (A and C) and WT (B and D) AChE1 was measured in the presence of various concentrations of PTF-20 and substrates. Enzymatic activity was analyzed using the graphical method developed by Dixon, representing reciprocal rates (1/v) (A and B) or reciprocal rates multiplied by substrate concentrations ([S]/v) (C and D) as a function of inhibitor concentration. (PDF) Click here for additional data file.
(§3) Table S3. Dissociation constants (Kic) of enzyme-inhibitor complexes.
(§4) a numbers refer to Table S1
(§5) b data were measured from five independent replicates.
(§6) c competitive inhibitor reference

G119S AChE1 [2] = target: T2, G119S AChE1 (Culex pipiens, UniProt Q86GC8, G247S); assay: biochemical; type: biochemical
T2 construct: made in house; host or cells: Drosophila S2 cells

[3] = system: C. pipiens SR strain larvae; assay: Larval bioassay, SR strain (OP-resistant); conditions: for LD50 SR: C. pipiens OP-resistant ace-1 R/R larvae; for Mortality at 300 µM, SR: fourth-instar larvae, 24 hours exposure
[4] = system: C. pipiens Ducos strain larvae; assay: Larval bioassay, Ducos strain (ace-1 duplication); type: in vivo, Culex pipiens; conditions: C. pipiens OP-resistant ace-1 D (duplication) larvae
Text: (§7) Three C. pipiens strains were used: the susceptible reference Slab strain, homozygous for ace-1 ^S [39], the resistant reference SR strain, carrying the genetical background of Slab but homozygous for the G119S mutation, allele ace-1 ^R [21] and the Ducos strain, carrying the genetical background of Slab but homozygous for an ace-1 duplication, with one ace-1^S and ace-1^R copy in tandem. Culex pipiens heterozygous larvae (Slab×SR) were obtained by crossing Slab males and SR females. Two A. gambiae reference strains (S molecular form) were used: the susceptible strain Kisumu, homozygous for ace-1 ^S, collected in Kenya in 1953 and maintained since then under laboratory conditions and the resistant Acerkis strain, carrying the genetical background of Kisumu but homozygous for an ace-1^R allele from a population collected in Bobo-Dioulasso, Burkina Faso [41].
(§8) Insecticidal activity was determined by performing bioassays on fourth-instar larvae as described in [42]. Each compound was dissolved in ethanol. Propoxur (CX) and chlorpyrifos (OP) were used as references. For each compound, we first tested mortality after a 24-hour exposure at 300 µM. […] Mortality data were analyzed by the log-probit program. This program takes into account natural mortality and provides lethal doses (LD) and slopes for each mortality line; it also computes resistance ratios (RR) for each LD, with 95% confidence intervals.

[5] = system: A. gambiae Acerkis strain larvae; assay: Larval bioassay, Acerkis strain (OP-resistant); type: in vivo, Anopheles gambiae; conditions: A. gambiae OP-resistant ace-1 R/R larvae
Text: as §7, §8

WT AChE1 [6] = target: T1, WT AChE1; assay: AChE assay (Ellman), dose-response on recombinant WT AChE1; type: biochemical; set-up: made in house; host or cells: Drosophila S2 cells
Outline: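 Enzyme expressed in Drosophila S2 cells; compounds tested in 10-fold serial dilutions from 3 mM to 30 nM. Ellman read-out at 412 nm with acetylthiocholine (1.6 mM as added, after 15 min room-temperature preincubation in the screening format). IC50 by nonlinear least-squares regression; 2–5 replicates with distinct enzyme batches.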

[7] = system: A. gambiae Kisumu strain larvae; assay: Larval bioassay, Kisumu strain (OP-susceptible); type: in vivo, Anopheles gambiae; conditions: A. gambiae OP-susceptible ace-1 S/S larvae
Text: as §7, §8

F331W AChE1 = target: T3, F331W AChE1 (Culex pipiens, UniProt Q86GC8, F457W); type: biochemical; conditions: F331W OP-insensitive AChE1
T3 construct: made in house; host or cells: Drosophila S2 cells
Description: (§9) Production of C. pipiens WT and mutated AChE1s in Drosophila S2 cells was already described. The chemical library (ChemBridge, 3,000 compounds) screening was performed in duplicate on G119S recombinant AChE1. Chemicals were made soluble in ethanol or dimethylsulphoxide (DMSO), and then diluted at 300 µM in ethanol for storage. Compounds (30 µM final concentration) were incubated for 15 min at room temperature with 100 µl of G119S recombinant AChE1 then 100 µl of substrate (acetylthiocholine, 1.6 mM, Sigma-Aldrich) was added and the residual activity was quantified by measuring the optical density at 412 nm, as described by Ellman et al.. PTF analogs were analyzed in dose-response experiments (10-fold serial dilutions from 3 mM to 30 nM), using recombinant WT and G119S AChE1 or mosquito head extracts (heads cut from frozen mosquitoes, homogenized in 400 µl PB containing 1% Triton X-100 and cleared by centrifugation at 9,000×g for 3 min). Depending on compound availability, two to five replicates were performed with distinct batches of enzyme. […] IC50 was estimated by nonlinear least square regression. IC50 was also measured on AChE1 from susceptible and resistant mosquito larvae extracts.
as §4
(§10) b IC50 values were determined from regression analysis of log-concentrations versus

F290V AChE1 = target: T4, F290V AChE1 (Culex pipiens, UniProt Q86GC8, F416V); type: biochemical; conditions: F290V OP-insensitive AChE1
T4 construct: made in house; host or cells: Drosophila S2 cells
Description: as §9, §4, §10

[8] = system: C. pipiens Slab strain larvae; assay: Larval bioassay, Slab strain (OP-susceptible); conditions: for LD50 Slab: C. pipiens OP-susceptible ace-1 S/S larvae, four to five replicates; for Mortality at 300 µM, Slab: fourth-instar larvae, 24 hours exposure
G119S AChE1 [9] = target: T2, G119S AChE1; type: biochemical; conditions: dissociation constant of enzyme-inhibitor complex; five independent replicates; read-out: Kic G119S
Description: as §1
Reversibility was tested using a rapid dilution procedure. Residual activity of WT (white bars) and G119S (grey bars) AChE1 were measured after 15 min incubation in presence of inhibitors (striped bars) and are expressed as percentages of control activity. […] Assays were then diluted ten times and residual activity was measured (open bars). Means and standard errors for three independent experiments are shown. (PDF) Click here for additional data file.
as §2, §3, §4, §5, §6

[10] = system: C. pipiens F1 (SR×Slab) heterozygous larvae; assay: Larval bioassay, heterozygous F1 (SR×Slab); type: in vivo, Culex pipiens; conditions: C. pipiens heterozygous ace-1 R/ace-1 S larvae
Text: as §7, §8

[11] = recombinant OP-insensitive G119S C. pipiens AChE1, 15 min incubation, acetylthiocholine, read-out: IC50 G119S
[12] = recombinant wild-type C. pipiens AChE1, 15 min incubation, acetylthiocholine, read-out: IC50 WT

Row | Structure (SMILES) | Ki (WT AChE1 [1]) [µM] | IC50 (G119S AChE1 [2]; [11]) [µM] | LD50 SR [3] [µM] | Mortality at 300 µM, SR [3] [%] | LD50 Ducos [4] [µM] | LD50 Acerkis [5] [µM] | IC50 (WT AChE1 [6]; [12]) [µM] | LD50 Kisumu [7] [µM] | IC50 (F331W AChE1) [µM] | IC50 (F290V AChE1) [µM] | LD50 Slab [8] [µM] | Mortality at 300 µM, Slab [8] [%] | Ki (G119S AChE1 [9]) [µM] | LD50 F1 (SR×Slab) [10] [µM] | IC50 (G119S AChE1 [2]) [µM] | mortality at 300 µM ([3]; Culex pipiens, 24 h, read-out: Mortality at 300 µM, SR) [%] | IC50 (WT AChE1 [6]) [µM] | mortality at 300 µM ([8]; Culex pipiens, 24 h, read-out: Mortality at 300 µM, Slab) [%]
1 | Cc1cccc(N2C(=O)C(=Cc3ccc(C)o3)C(=O)NC2=S)c1 [PTF-25] | 131 ± 3.1 | 28.6 | 70.1 | 68 | 130.8 | 12.6 | 442 | 46.1 | 31.9 | 39.3 | 160.8 | 32 | 24.9 ± 0.6 | 60.0 |  |  |  | 
2 | Cc1ccc(C=C2C(=O)NC(=O)N(c3ccc(Cl)cc3)C2=O)o1 [PTF-20] | 56.1 ± 1.8 | 27.5 | 194.0 | 94 |  |  | 330 |  | 8.3 | 14.5 | 762.0 | 43 | 5.6 ± 0.1 |  |  |  |  | 
3 | Cc1ccc(C=C2C(=O)NC(=O)N(c3ccccc3)C2=O)o1 [PTF-3] | 127 ± 2.8 | 6.2 | 143.0 | 78 | 162.1 | 86.6 | 29.4 | 109.7 | 17.8 | 12.4 | 310.0 | 43 | 21.8 ± 1.9 | 151.3 |  |  |  | 
4 | COc1ccc(N2C(=O)NC(=O)C(=Cc3ccc(C)o3)C2=O)cc1 [PTF-10] | 88.2 ± 4.2 | 81.4 | 206.0 | 87 | 232.8 | 50.6 | 592 | 388.3 | 88.2 | 85.9 | 300.0 | 14 | 64.5 ± 1.8 | 207.1 |  |  |  | 
5 | Cc1ccc(C=C2C(=O)N(C)C(=O)N(C)C2=O)o1 [PTF-39] | 130 ± 9.2 | 7.6 | 200.0 | 81 | 201.9 |  | 74.3 |  | 8.7 | 13.9 | 576.0 | 29 | 41.9 ± 2.3 | 110.0 |  |  |  | 
6 | CCOP(=S)(OCC)Oc1nc(Cl)c(Cl)cc1Cl [Chlorpyrifos, reference compound] |  |  | 0.021 |  | 0.0022 | 0.6 |  | 0.00095 |  |  | 0.00019 |  |  | 0.0015 |  |  |  | 
7 | CNC(=O)Oc1ccccc1OC(C)C [Propoxur, reference compound] |  |  | 2100 |  | 56.7 | 689.6 |  | 0.1 |  |  | 1.6 |  |  | 2.3 | 26500 | 0 | 0.3 | 100
8 | COc1cccc(N2C(=O)C(=Cc3ccc(C)o3)C(=O)NC2=S)c1 [PTF-29] | 17.1 ± 6.8 | 33.5 | 398.8 | 63 | 409.0 | 67.7 | 118 | 164.4 | 11.2 | 37.4 | 946.0 | 27 | 8.9 ± 2.7 | 105.1 |  |  |  | 
